Laboratory results: EP4745135A1 (Gluetacs Therapeutics (Shanghai) Co., Ltd., priority 2023, dated 2025)

Assays:
[1] = test system: Human multiple myeloma cell (MM.1S); assay: Tumor cell proliferation inhibition (CellTiter-Meiluncell luminescent cell viability assay); details: for inhibition at 0.01 µM / inhibition at 0.5 µM: Homo sapiens, MM1.S, 96 h; for inhibition at 0.01 µM: read-out: Inhibition Rate at 10 nM (%); for inhibition at 0.5 µM: read-out: Inhibition Rate at 500 nM (%)
GSPT1 = assay: Western blot, degradation of substrate protein in hPBMCs; format: cell-based, Human
[2] = test system: Human myeloid monocytic leukemia cell (MV-4-11); assay: Tumor cell proliferation inhibition (CellTiter-Meiluncell luminescent cell viability assay); details: MV4-11, 96 h; for inhibition at 0.01 µM: read-out: Inhibition Rate at 10 nM (%); for inhibition at 0.5 µM: read-out: Inhibition Rate at 500 nM (%)
[3] = molecular target: T1, human Cereblon WT GST-tagged protein (Homo sapiens, UniProt Q96SW2); assay: CRBN-binding affinity, HTRF (CEREBLON BINDING kit); details: for inhibition at 0.5 µM: read-out: Inhibition Rate at 0.5 µM (%); for inhibition at 2 µM: read-out: Inhibition Rate at 2 µM (%)
T1 construct: purchased CISBIO 64BDCRBNPEH
T1 sequence (Q96SW2 whole entry): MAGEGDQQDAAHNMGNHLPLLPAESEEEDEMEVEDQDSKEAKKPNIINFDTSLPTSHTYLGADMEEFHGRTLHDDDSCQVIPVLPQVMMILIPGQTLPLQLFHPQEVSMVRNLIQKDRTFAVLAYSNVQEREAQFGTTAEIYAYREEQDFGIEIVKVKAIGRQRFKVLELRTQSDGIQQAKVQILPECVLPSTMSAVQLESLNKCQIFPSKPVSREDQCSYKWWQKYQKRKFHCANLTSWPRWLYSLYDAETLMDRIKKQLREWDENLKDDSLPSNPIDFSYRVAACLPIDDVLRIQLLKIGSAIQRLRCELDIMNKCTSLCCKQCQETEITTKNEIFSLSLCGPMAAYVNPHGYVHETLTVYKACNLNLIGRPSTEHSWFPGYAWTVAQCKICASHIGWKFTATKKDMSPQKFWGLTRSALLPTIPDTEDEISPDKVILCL

IKZF1 = molecular target: T2, IKZF1 (Homo sapiens, UniProt Q13422+Q96SW2); assay: Western blot, degradation of substrate protein in hPBMCs; format: cell-based
T2 construct: effects of the compounds of the present disclosure on the expression of target proteins in cells; endogenous in cells; host or cells: human PBMCs (Milecell Biotechnologies)
T2 sequence (Q13422 whole entry): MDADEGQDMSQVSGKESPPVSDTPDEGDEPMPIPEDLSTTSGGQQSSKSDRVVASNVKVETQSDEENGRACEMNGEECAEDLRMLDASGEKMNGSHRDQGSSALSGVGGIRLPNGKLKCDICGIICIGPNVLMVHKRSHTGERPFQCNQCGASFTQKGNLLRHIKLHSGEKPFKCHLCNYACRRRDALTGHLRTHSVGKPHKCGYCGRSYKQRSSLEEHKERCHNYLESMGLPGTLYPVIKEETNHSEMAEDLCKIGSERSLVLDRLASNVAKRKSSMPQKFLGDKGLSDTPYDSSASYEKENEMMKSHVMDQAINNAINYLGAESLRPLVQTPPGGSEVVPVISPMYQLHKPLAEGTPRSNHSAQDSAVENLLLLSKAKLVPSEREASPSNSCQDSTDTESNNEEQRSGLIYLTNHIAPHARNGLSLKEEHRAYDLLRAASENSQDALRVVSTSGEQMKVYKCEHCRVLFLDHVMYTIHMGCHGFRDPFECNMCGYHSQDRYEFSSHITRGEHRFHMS
T2 sequence (Q96SW2 whole entry): as the sequence (Q96SW2 whole entry) above
T2 sequence (Q16531 whole entry partner): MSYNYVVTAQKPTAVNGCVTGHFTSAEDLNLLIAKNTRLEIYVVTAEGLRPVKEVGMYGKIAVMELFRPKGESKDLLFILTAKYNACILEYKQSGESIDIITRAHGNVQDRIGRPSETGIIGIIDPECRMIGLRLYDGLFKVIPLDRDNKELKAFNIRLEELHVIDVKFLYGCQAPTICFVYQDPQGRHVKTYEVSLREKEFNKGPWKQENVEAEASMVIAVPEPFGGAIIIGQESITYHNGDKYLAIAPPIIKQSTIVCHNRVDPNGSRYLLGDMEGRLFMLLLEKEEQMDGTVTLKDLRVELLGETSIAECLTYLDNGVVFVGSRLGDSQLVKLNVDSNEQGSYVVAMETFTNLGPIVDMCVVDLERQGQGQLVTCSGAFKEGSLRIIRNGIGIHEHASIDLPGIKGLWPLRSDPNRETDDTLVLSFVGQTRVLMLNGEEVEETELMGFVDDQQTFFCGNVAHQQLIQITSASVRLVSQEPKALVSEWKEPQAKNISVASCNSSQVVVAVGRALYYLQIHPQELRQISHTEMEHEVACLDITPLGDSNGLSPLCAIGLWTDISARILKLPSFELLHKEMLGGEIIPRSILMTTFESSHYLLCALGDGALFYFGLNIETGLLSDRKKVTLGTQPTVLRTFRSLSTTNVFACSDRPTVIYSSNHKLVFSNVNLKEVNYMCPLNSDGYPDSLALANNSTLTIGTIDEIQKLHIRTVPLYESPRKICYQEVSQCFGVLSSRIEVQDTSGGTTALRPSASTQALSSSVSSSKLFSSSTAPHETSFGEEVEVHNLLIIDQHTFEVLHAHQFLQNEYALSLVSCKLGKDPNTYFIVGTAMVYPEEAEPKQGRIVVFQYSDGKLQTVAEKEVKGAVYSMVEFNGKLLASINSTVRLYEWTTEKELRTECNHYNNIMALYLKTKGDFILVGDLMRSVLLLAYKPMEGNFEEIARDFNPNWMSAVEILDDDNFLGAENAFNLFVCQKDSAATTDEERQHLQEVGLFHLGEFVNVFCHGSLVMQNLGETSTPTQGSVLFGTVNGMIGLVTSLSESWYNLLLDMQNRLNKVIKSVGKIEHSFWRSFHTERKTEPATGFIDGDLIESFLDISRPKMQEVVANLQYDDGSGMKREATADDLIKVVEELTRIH

IKZF3 = molecular target: T3, IKZF3 (Homo sapiens, UniProt Q96SW2+Q9UKT9); assay: as above; format: cell-based
T3 construct: effects of the compounds of the present disclosure on the expression of target proteins in cells; endogenous in cells; host or cells: human PBMCs (Milecell Biotechnologies)
T3 sequence (Q9UKT9 whole entry): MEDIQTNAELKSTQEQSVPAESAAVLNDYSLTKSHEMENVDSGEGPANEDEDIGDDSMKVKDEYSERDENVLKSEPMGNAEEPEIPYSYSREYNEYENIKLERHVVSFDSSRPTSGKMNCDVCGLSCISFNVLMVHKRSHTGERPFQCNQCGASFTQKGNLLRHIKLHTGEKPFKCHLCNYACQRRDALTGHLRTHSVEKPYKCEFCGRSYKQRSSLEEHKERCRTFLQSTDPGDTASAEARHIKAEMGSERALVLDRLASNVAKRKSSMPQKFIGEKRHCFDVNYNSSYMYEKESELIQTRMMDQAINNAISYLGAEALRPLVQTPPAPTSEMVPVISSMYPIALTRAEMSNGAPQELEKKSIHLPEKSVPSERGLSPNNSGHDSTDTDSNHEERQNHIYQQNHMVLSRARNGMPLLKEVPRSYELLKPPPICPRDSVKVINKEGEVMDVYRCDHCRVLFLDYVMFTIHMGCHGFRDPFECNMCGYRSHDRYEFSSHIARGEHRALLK
T3 sequence (Q96SW2 whole entry): as the sequence (Q96SW2 whole entry) above
T3 sequence (Q16531 whole entry partner): as the sequence (Q16531 whole entry partner) above

IKZF2 = molecular target: T4, IKZF2 (Homo sapiens, UniProt Q96SW2+Q9UKS7); assay: as above; format: cell-based
T4 construct: effects of the compounds of the present disclosure on the expression of target proteins in cells; endogenous in cells; host or cells: human PBMCs (Milecell Biotechnologies)
T4 sequence (Q9UKS7 whole entry): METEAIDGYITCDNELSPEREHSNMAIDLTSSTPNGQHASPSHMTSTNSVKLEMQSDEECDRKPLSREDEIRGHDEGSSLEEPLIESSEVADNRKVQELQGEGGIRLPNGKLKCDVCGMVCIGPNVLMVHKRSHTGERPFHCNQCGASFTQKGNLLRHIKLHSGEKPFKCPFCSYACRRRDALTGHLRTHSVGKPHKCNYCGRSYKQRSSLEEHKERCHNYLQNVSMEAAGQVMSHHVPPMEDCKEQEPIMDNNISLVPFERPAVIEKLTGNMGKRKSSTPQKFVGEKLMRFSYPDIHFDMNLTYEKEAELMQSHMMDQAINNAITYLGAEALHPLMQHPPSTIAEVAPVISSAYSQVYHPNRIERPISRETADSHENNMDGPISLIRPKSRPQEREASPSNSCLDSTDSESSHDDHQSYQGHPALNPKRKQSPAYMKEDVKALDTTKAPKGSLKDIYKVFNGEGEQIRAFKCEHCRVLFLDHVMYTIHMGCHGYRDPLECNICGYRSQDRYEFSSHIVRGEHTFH
T4 sequence (Q96SW2 whole entry): as the sequence (Q96SW2 whole entry) above
T4 sequence (Q16531 whole entry partner): as the sequence (Q16531 whole entry partner) above

CK1α = molecular target: T5, CK1α (Homo sapiens, UniProt P48729+Q96SW2); assay: as above; format: cell-based
T5 construct: effects of the compounds of the present disclosure on the expression of target proteins in cells; endogenous in cells; host or cells: human PBMCs (Milecell Biotechnologies)
T5 sequence (P48729 whole entry): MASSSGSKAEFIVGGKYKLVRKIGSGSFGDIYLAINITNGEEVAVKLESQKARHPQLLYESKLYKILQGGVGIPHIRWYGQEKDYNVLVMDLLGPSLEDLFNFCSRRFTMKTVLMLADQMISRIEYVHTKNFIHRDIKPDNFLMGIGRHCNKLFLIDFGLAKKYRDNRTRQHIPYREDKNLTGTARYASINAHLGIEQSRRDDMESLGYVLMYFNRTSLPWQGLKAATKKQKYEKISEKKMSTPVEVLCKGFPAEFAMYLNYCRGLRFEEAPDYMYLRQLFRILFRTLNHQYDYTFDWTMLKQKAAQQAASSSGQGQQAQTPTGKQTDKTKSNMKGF
T5 sequence (Q96SW2 whole entry): as the sequence (Q96SW2 whole entry) above
T5 sequence (Q16531 whole entry partner): as the sequence (Q16531 whole entry partner) above

WEE1 = molecular target: T6, WEE1 (Homo sapiens, UniProt P30291+Q96SW2); assay: as above; format: cell-based
T6 construct: effects of the compounds of the present disclosure on the expression of target proteins in cells; endogenous in cells; host or cells: human PBMCs (Milecell Biotechnologies)
T6 sequence (P30291 whole entry): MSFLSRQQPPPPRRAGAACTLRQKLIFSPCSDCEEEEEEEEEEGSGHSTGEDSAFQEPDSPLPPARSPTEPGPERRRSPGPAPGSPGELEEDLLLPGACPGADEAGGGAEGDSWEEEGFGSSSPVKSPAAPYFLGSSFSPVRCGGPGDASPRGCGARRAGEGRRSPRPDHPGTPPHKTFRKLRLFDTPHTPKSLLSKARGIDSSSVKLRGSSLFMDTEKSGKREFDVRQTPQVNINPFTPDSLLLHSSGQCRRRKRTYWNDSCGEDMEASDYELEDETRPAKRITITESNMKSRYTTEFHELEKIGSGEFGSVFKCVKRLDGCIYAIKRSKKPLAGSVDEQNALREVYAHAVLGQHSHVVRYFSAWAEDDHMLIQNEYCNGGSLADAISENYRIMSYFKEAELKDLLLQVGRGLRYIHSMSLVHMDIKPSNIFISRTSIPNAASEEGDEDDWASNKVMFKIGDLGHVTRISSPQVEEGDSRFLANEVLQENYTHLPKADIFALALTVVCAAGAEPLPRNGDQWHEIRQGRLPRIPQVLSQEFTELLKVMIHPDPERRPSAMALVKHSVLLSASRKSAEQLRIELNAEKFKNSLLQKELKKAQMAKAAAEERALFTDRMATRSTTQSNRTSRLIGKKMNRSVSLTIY
T6 sequence (Q96SW2 whole entry): as the sequence (Q96SW2 whole entry) above
T6 sequence (Q16531 whole entry partner): as the sequence (Q16531 whole entry partner) above

[4] = Western blot, 24 hours of compound treatment, compounds tested at 50 nM and 500 nM (concentration for the table not stated)
[5] = 24 hours treatment, compounds at 50 nM and 500 nM (concentration behind the class not stated)

## O=C1CCC(N2Cc3cc(CN4CCN(c5ccc(Cl)cn5)CC4)ccc3C2=S)C(=O)N1 (stereo not drawn) [GT-09217, 3-(5-((4-(5-chloropyridin-2-yl)piperazin-1-yl)methyl)-1-thioxoisoindolin-2-yl)piperidine-2,6-dione]
[1]
  inhibition at 0.01 µM: 30 to 40%
  inhibition at 0.5 µM: 60 to 70%
GSPT1; [4]
  GSPT1 substrate protein remaining %: A (0% ≤ substrate protein remaining % ≤ 80%)
[2]
  inhibition at 0.01 µM: 40 to 60%
  inhibition at 0.5 µM: 80 to 100%
[3]
  inhibition at 0.5 µM: 60 to 80%
  inhibition at 2 µM: 80 to 100%
IKZF1; [4]
  IKZF 1 substrate protein remaining %: B (80%< substrate protein remaining %≤ 100%)
IKZF3; [4]
  IKZF3 substrate protein remaining %: B (80%< substrate protein remaining %≤ 100%)
IKZF2; [4]
  IKZF2 substrate protein remaining %: B (80%< substrate protein remaining %≤ 100%)
CK1α; [4]
  CK1α substrate protein remaining %: B (80%< substrate protein remaining %≤ 100%)
WEE1; [4]
  Wee1 substrate protein remaining %: B (80%< substrate protein remaining %≤ 100%)

## Cc1ccsc1C1CCN(Cc2ccc3c(c2)CN(C2CCC(=O)NC2=O)C3=S)CC1 (stereo not drawn) [GT-08323, 3-(5-((4-(3-methylthiophen-2-yl)piperidin-1-yl)methyl)-1-thioxoisoindolin-2-yl)piperidine-2,6-dione]
[1]
  inhibition at 0.01 µM: 0 to 5%
[1]; MM.1S, 500 nM, 96 hours
  Inhibition Rate at 500 nM (%): la7
GSPT1; [5]
  GSPT1 substrate protein remaining %: A (0% ≤ substrate protein remaining % ≤ 80%)
[2]
  inhibition at 0.01 µM: -5 to 0%
  inhibition at 0.5 µM: 40 to 60%
[3]
  inhibition at 0.5 µM: 40 to 53%
  inhibition at 2 µM: 80 to 100%
IKZF1; [5]
  IKZF 1 substrate protein remaining %: B (80%< substrate protein remaining %≤ 100%)
IKZF3; [5]
  IKZF3 substrate protein remaining %: B (80%< substrate protein remaining %≤ 100%)
IKZF2; [5]
  IKZF2 substrate protein remaining %: B (80%< substrate protein remaining %≤ 100%)
CK1α; [5]
  CK1α substrate protein remaining %: A (0% ≤ substrate protein remaining % ≤ 80%)
WEE1; [5]
  Wee1 substrate protein remaining %: B (80%< substrate protein remaining %≤ 100%)

## O=C1CCC(N2Cc3cc(CN4CCN(c5ccc(Br)cc5)CC4)ccc3C2=S)C(=O)N1 (stereo not drawn) [GT-08600, 3-(5-((4-(4-bromophenyl)piperazin-1-yl)methyl)-1-thioxoisoindolin-2-yl)piperidine-2,6-dione]
[1]
  inhibition at 0.01 µM: 30 to 40%
  inhibition at 0.5 µM: 60 to 70%
GSPT1; [4]
  GSPT1 substrate protein remaining %: A (0% ≤ substrate protein remaining % ≤ 80%)
[2]
  inhibition at 0.01 µM: 40 to 60%
  inhibition at 0.5 µM: 80 to 100%
[3]
  inhibition at 0.5 µM: 53 to 60%
  inhibition at 2 µM: 80 to 100%
IKZF1; [4]
  IKZF 1 substrate protein remaining %: B (80%< substrate protein remaining %≤ 100%)
IKZF3; [4]
  IKZF3 substrate protein remaining %: B (80%< substrate protein remaining %≤ 100%)
IKZF2; [4]
  IKZF2 substrate protein remaining %: B (80%< substrate protein remaining %≤ 100%)
CK1α; [4]
  CK1α substrate protein remaining %: B (80%< substrate protein remaining %≤ 100%)
WEE1; [4]
  Wee1 substrate protein remaining %: B (80%< substrate protein remaining %≤ 100%)

## O=C1CCC(N2Cc3cc(CN4CCC(c5ccccc5F)CC4)ccc3C2=S)C(=O)N1 (stereo not drawn) [GT-08620, 3-(5-((4-(2-fluorophenyl)piperidin-1-yl)methyl)-1-thioxoisoindolin-2-yl)piperidine-2,6-dione]
[1]
  inhibition at 0.01 µM: 40 to 50%
  inhibition at 0.5 µM: 70 to 80%
GSPT1; [4]
  GSPT1 substrate protein remaining %: A (0% ≤ substrate protein remaining % ≤ 80%)
[2]
  inhibition at 0.01 µM: 30 to 40%
  inhibition at 0.5 µM: 60 to 80%
[3]
  inhibition at 0.5 µM: 53 to 60%
  inhibition at 2 µM: 80 to 100%
IKZF1; [4]
  IKZF 1 substrate protein remaining %: B (80%< substrate protein remaining %≤ 100%)
IKZF3; [4]
  IKZF3 substrate protein remaining %: B (80%< substrate protein remaining %≤ 100%)
IKZF2; [4]
  IKZF2 substrate protein remaining %: A (0% ≤ substrate protein remaining % ≤ 80%)
CK1α; [4]
  CK1α substrate protein remaining %: B (80%< substrate protein remaining %≤ 100%)
WEE1; [4]
  Wee1 substrate protein remaining %: B (80%< substrate protein remaining %≤ 100%)

## O=C1CCC(N2Cc3cc(CN4CCN(c5cccc(Cl)n5)CC4)ccc3C2=S)C(=O)N1 (stereo not drawn) [GT-09215, 3-(5-((4-(6-chloropyridin-2-yl)piperazin-1-yl)methyl)-1-thioxoisoindolin-2-yl)piperidine-2,6-dione]
[1]
  inhibition at 0.01 µM: 30 to 40%
  inhibition at 0.5 µM: 50 to 60%
GSPT1; [4]
  GSPT1 substrate protein remaining %: A (0% ≤ substrate protein remaining % ≤ 80%)
[2]
  inhibition at 0.01 µM: 40 to 60%
  inhibition at 0.5 µM: 80 to 100%
[3]
  inhibition at 0.5 µM: 60 to 80%
  inhibition at 2 µM: 80 to 100%
IKZF1; [4]
  IKZF 1 substrate protein remaining %: B (80%< substrate protein remaining %≤ 100%)
IKZF3; [4]
  IKZF3 substrate protein remaining %: B (80%< substrate protein remaining %≤ 100%)
IKZF2; [4]
  IKZF2 substrate protein remaining %: B (80%< substrate protein remaining %≤ 100%)
CK1α; [4]
  CK1α substrate protein remaining %: B (80%< substrate protein remaining %≤ 100%)
WEE1; [4]
  Wee1 substrate protein remaining %: B (80%< substrate protein remaining %≤ 100%)
